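Test compounds were applied to cells in 96-well plates for 48 hours at 5 doses. TGI: concentration producing complete growth inhibition.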
Legend:
Assay in all cases: NCI tumour cell line growth inhibition, 48 h
UACC-257 melanoma = tested on: UACC-257 melanoma
RPMI-8226 leukemia = tested on: RPMI-8226 leukemia
MCF7 breast = tested on: MCF7 breast
U251 CNS = tested on: U251 CNS
NCI-H460 lung = tested on: NCI-H460 lung
HCT-15 colon = tested on: HCT-15 colon
HCT-116 colon = tested on: HCT-116 colon
TK-10 renal = tested on: TK-10 renal
SNB-19 CNS = tested on: SNB-19 CNS
SNB-75 CNS = tested on: SNB-75 CNS
KM12 colon = tested on: KM12 colon
NCI-H23 lung = tested on: NCI-H23 lung
NCI-H522 lung = tested on: NCI-H522 lung
K-562 leukemia = tested on: K-562 leukemia
CCRF-CEM leukemia = tested on: CCRF-CEM leukemia
HS 578T breast = tested on: HS 578T breast
A549 NSCLC = tested on: A549 NSCLC
LOX IMVI melanoma = tested on: LOX IMVI melanoma
EKVX NSCLC = tested on: EKVX NSCLC
HCC-2998 colon = tested on: HCC-2998 colon
SF-268 CNS = tested on: SF-268 CNS
NCI-H226 lung = tested on: NCI-H226 lung
OVCAR-4 ovarian = tested on: OVCAR-4 ovarian
SK-OV-3 ovarian = tested on: SK-OV-3 ovarian
HL-60(TB) leukemia = tested on: HL-60(TB) leukemia
HOP-62 NSCLC = tested on: HOP-62 NSCLC
DU-145 prostate = tested on: DU-145 prostate
SK-MEL-28 melanoma = tested on: SK-MEL-28 melanoma
MDA-MB-231 breast = tested on: MDA-MB-231 breast
SW-620 colon = tested on: SW-620 colon
A498 renal = tested on: A498 renal
MDA-MB-435 = tested on: MDA-MB-435
T-47D breast = tested on: T-47D breast
HT29 colon = tested on: HT29 colon
IGROV1 ovarian = tested on: IGROV1 ovarian
NCI/ADR-RES ovarian = tested on: NCI/ADR-RES ovarian
MOLT-4 leukemia = tested on: MOLT-4 leukemia
UO-31 renal = tested on: UO-31 renal
OVCAR-3 ovarian = tested on: OVCAR-3 ovarian
PC-3 prostate = tested on: PC-3 prostate
CAKI-1 renal = tested on: CAKI-1 renal
SR leukemia = tested on: SR leukemia
ACHN renal = tested on: ACHN renal
SF-539 CNS = tested on: SF-539 CNS
MDA-N = tested on: MDA-N
UACC-62 melanoma = tested on: UACC-62 melanoma
SF-295 CNS = tested on: SF-295 CNS
OVCAR-8 ovarian = tested on: OVCAR-8 ovarian
HOP-92 NSCLC = tested on: HOP-92 NSCLC
SK-MEL-2 melanoma = tested on: SK-MEL-2 melanoma
SN12C renal = tested on: SN12C renal
SK-MEL-5 melanoma = tested on: SK-MEL-5 melanoma
BT-549 breast = tested on: BT-549 breast
M14 melanoma = tested on: M14 melanoma
786-0 renal = tested on: 786-0 renal
COLO 205 colon = tested on: COLO 205 colon
MALME-3M melanoma = tested on: MALME-3M melanoma
OVCAR-5 ovarian = tested on: OVCAR-5 ovarian
RXF 393 renal = tested on: RXF 393 renal

S=C1Cc2cc3ccccc3nc2-c2ccccc2N1
TGI (UACC-257 melanoma): 65.5 µM | TGI (RPMI-8226 leukemia): > 100 µM | TGI (MCF7 breast): > 79 µM | TGI (U251 CNS): 28.3 µM | TGI (NCI-H460 lung): > 51.2 µM | TGI (HCT-15 colon): > 87.3 µM | TGI (HCT-116 colon): 30.8 µM | TGI (TK-10 renal): 44.6 µM | TGI (SNB-19 CNS): > 47.4 µM | TGI (SNB-75 CNS): 17.5 µM | TGI (KM12 colon): > 100 µM | TGI (NCI-H23 lung): 41.6 µM | TGI (NCI-H522 lung): 43.1 µM | TGI (K-562 leukemia): > 100 µM | TGI (CCRF-CEM leukemia): > 100 µM | TGI (HS 578T breast): > 63.7 µM | TGI (A549 NSCLC): > 64.8 µM | TGI (LOX IMVI melanoma): > 69.8 µM | TGI (EKVX NSCLC): 79.2 µM | TGI (HCC-2998 colon): 36 µM | TGI (SF-268 CNS): 91.6 µM | TGI (NCI-H226 lung): 46.9 µM | TGI (OVCAR-4 ovarian): > 40.4 µM | TGI (SK-OV-3 ovarian): 15.4 µM | TGI (HL-60(TB) leukemia): > 100 µM | TGI (HOP-62 NSCLC): 30.7 µM | TGI (DU-145 prostate): > 100 µM | TGI (SK-MEL-28 melanoma): > 59.1 µM | TGI (MDA-MB-231 breast): 27 µM | TGI (SW-620 colon): > 70.4 µM | TGI (A498 renal): 18.6 µM | TGI (MDA-MB-435): > 68.2 µM | TGI (T-47D breast): 28.7 µM | TGI (HT29 colon): > 100 µM | TGI (IGROV1 ovarian): 65.1 µM | TGI (NCI/ADR-RES ovarian): 29 µM | TGI (MOLT-4 leukemia): > 100 µM | TGI (UO-31 renal): 24.1 µM | TGI (OVCAR-3 ovarian): 27.9 µM | TGI (PC-3 prostate): 80.7 µM | TGI (CAKI-1 renal): 54.5 µM | TGI (SR leukemia): > 100 µM | TGI (ACHN renal): 41.4 µM | TGI (SF-539 CNS): 29.4 µM | TGI (MDA-N): > 100 µM | TGI (UACC-62 melanoma): 25.7 µM | TGI (SF-295 CNS): 42.2 µM | TGI (OVCAR-8 ovarian): 31.2 µM | TGI (HOP-92 NSCLC): 20.2 µM | TGI (SK-MEL-2 melanoma): 61.8 µM | TGI (SN12C renal): 32.6 µM | TGI (SK-MEL-5 melanoma): > 100 µM | TGI (BT-549 breast): > 59.1 µM | TGI (M14 melanoma): > 64.2 µM | TGI (786-0 renal): 28.4 µM | TGI (COLO 205 colon): > 100 µM | TGI (MALME-3M melanoma): 47.6 µM | TGI (OVCAR-5 ovarian): > 91.9 µM | TGI (RXF 393 renal): 24.9 µM

COc1ccc(CNC(=O)[C@H](Cc2ccc(O)cn2)NC(C)=O)cc1OC
TGI (UACC-257 melanoma): > 100 µM | TGI (RPMI-8226 leukemia): > 100 µM | TGI (MCF7 breast): > 100 µM | TGI (U251 CNS): > 100 µM | TGI (NCI-H460 lung): > 100 µM | TGI (HCT-15 colon): > 100 µM | TGI (HCT-116 colon): > 100 µM | TGI (TK-10 renal): > 100 µM | TGI (SNB-19 CNS): > 100 µM | TGI (SNB-75 CNS): > 100 µM | TGI (KM12 colon): > 100 µM | TGI (NCI-H23 lung): > 100 µM | TGI (NCI-H522 lung): > 100 µM | TGI (K-562 leukemia): > 100 µM | TGI (CCRF-CEM leukemia): > 100 µM | TGI (HS 578T breast): > 100 µM | TGI (A549 NSCLC): > 100 µM | TGI (LOX IMVI melanoma): > 100 µM | TGI (EKVX NSCLC): > 100 µM | TGI (HCC-2998 colon): > 100 µM | TGI (SF-268 CNS): > 100 µM | TGI (NCI-H226 lung): > 100 µM | TGI (OVCAR-4 ovarian): > 100 µM | TGI (SK-OV-3 ovarian): > 100 µM | TGI (HL-60(TB) leukemia): > 100 µM | TGI (HOP-62 NSCLC): > 100 µM | TGI (DU-145 prostate): > 100 µM | TGI (SK-MEL-28 melanoma): > 100 µM | TGI (MDA-MB-231 breast): > 100 µM | TGI (SW-620 colon): > 100 µM | TGI (A498 renal): > 100 µM | TGI (MDA-MB-435): > 100 µM | TGI (T-47D breast): > 100 µM | TGI (HT29 colon): > 100 µM | TGI (IGROV1 ovarian): > 100 µM | TGI (NCI/ADR-RES ovarian): > 100 µM | TGI (MOLT-4 leukemia): > 100 µM | TGI (UO-31 renal): > 100 µM | TGI (OVCAR-3 ovarian): > 100 µM | TGI (PC-3 prostate): > 100 µM | TGI (CAKI-1 renal): > 100 µM | TGI (SR leukemia): > 100 µM | TGI (ACHN renal): > 100 µM | TGI (SF-539 CNS): > 100 µM | TGI (MDA-N): > 100 µM | TGI (UACC-62 melanoma): > 100 µM | TGI (SF-295 CNS): > 100 µM | TGI (OVCAR-8 ovarian): > 100 µM | TGI (HOP-92 NSCLC): > 100 µM | TGI (SK-MEL-2 melanoma): > 100 µM | TGI (SN12C renal): > 100 µM | TGI (SK-MEL-5 melanoma): > 100 µM | TGI (BT-549 breast): > 100 µM | TGI (M14 melanoma): > 100 µM | TGI (786-0 renal): > 100 µM | TGI (COLO 205 colon): > 100 µM | TGI (MALME-3M melanoma): > 100 µM | TGI (OVCAR-5 ovarian): > 100 µM | TGI (RXF 393 renal): > 100 µM

Source: PubChem BioAssay (NCI)
